Measured values from US20250248979A1, “NOVEL GPX4 INHIBITORS AND USES THEREOF” (THE TRUSTEES OF COLUMBIA UNIVERSITY IN THE CITY OF NEW YORK, priority 2022, published 2025).
“Also recorded” adds a separate entry of the source. Read-outs that look alike come from different tables or passages of the source.

Key:
HT-1080 cells = assay: Cellular dose response assay, HT-1080 with and without Fer-1; format: cell-based, human; settings: for Selectivity: ferroptosis selectivity; for ferroptosis induction / potency in HT-1080 cells, result in words: RSL3 as control
Excerpt: HT-1080 (human [Homo sapiens] […] fibrosarcoma), A-673 (human [Homo sapiens] […] Ewing's sarcoma), and SK-HEP-1 (human [Homo sapiens] […] hepatic adenocarcinoma), cells were obtained from ATCC. Huh7 (human [Homo sapiens] […] hepatocellular carcinoma), HLF (human [Homo sapiens] […] hepatocellular carcinoma), HepG2 (human [Homo sapiens] […] hepatocellular carcinoma), cells were obtained from the Cancer Cell Bank at Columbia University Irving Medical Center. HT-1080, A-673, Huh-7, and HLF cells were grown in Dulbecco's Modified Eagle Medium (DMEM) supplemented with 10% heat inactivated fetal bovine serum (HI-FBS), 1% non-essential amino acids, and 1% penicillin streptomycin. HepG2 and SK-HEP-1 cells were grown in Eagle's Minimum Essential Medium (EMEM) supplemented with 10% HI-FBS, and 1% penicillin-streptomycin. All cells were cultured at 37° C. and 5% CO2.
HT-1080, HepG2, Huh7, HLF, and SK-HEP-1 cells were seeded into opaque white 384-well plates at 1500 cells per well then incubated at 37° C. with 5% CO2 overnight. The next day, compounds of interest were dissolved in DMSO and 12-point 2-fold dilution series were prepared with and without Fer-1. Cells were treated in triplicate (final DMSO concentration of 0.4% in all wells, including DMSO-only control wells) and incubated for a further 48 hours at 37° C. and 5% CO2. Cell viability was evaluated using CellTiter-Glo (Promega G7573) and luminescence was recorded on a Victor 5 plate reader. Data were analyzed in GraphPad Prism 9 and error bars represent standard deviation values for three technical replicates in a representative experiment.

GPX4 = biological target: T1, GPX4 (Homo sapiens, UniProt P36969); assay: GPX4 activity assay in cell lysates (NADPH-coupled); format: biochemical; design: endogenous in cells; host or cells: A-673 cell lysate
T1 sequence (P36969 1-170 isoform P36969-2): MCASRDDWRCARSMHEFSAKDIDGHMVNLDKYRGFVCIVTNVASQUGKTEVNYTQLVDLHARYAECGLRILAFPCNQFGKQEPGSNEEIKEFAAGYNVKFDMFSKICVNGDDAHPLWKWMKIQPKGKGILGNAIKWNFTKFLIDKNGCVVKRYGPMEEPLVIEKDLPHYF
Outline: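 Native GPX4 in lysates of A-673 cells grown with 20 nM sodium selenite; lysate preincubated with compound 45 min at 37 °C in pH 8.0 buffer with 3 mM GSH, 0.5 mM NADPH and glutathione reductase. Reaction started with phosphatidylcholine hydroperoxide; NADPH consumption followed at 340 nm over 25 min; triplicates.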

[1] = HT1080 + Fer-1, read-out: IC50 (uM) HT1080 + Fer-1
[2] = HT1080, without Fer-1, read-out: IC50 (uM) HT1080
[3] = with Fer-1, Table 10, read-out: IC50 (μM) HT1080 + Fer-1
[4] = without Fer-1, Table 10, read-out: IC50 (μM) HT1080

SMILES	IC50 (HT-1080 cells; [1])	IC50 (HT-1080 cells; [2])	GPX4% inhibition at 2.5 μM (GPX4; 2.5 μM)	Selectivity (HT-1080 cells; HT1080 + Fer-1 vs HT1080)	other results
CCOCCOc1ccc(-c2ccc3c(C(=O)NC(C)(C)COC(=O)CCl)nn(C)c3c2)cc1 [QW-605]	17.5 µM	1.9 µM	60.9 ± 15.7%	9.2	–
Cn1nc(-n2cc(C(C)(C)COC(=O)CCl)nn2)c2ccc(-c3ccc(OC(F)(F)F)c(Cl)c3)cc21 [QW-677]	14 µM	1.65 µM	33.6 ± 6.3%	8.5	–
Cn1nc(-c2nnc(C(C)(OC(=O)CCl)C(F)(F)F)o2)c2ccc(-c3ccc4c(c3)OCO4)cc21 (centres unmarked) [QW-695]	14.4 µM	9.4 µM	−49.5 ± 28.5%	1.5	–
COc1c(Cl)cc(-c2ccc3c(-n4cc(C(C)(C)COC(=O)CCl)nn4)nn(C)c3c2)cc1Cl [QW-712]	28.4 µM	1.9 µM	68.5 ± 9.4%	14.9	ferroptosis induction / potency in HT-1080 cells, result in words (HT-1080 cells): less potent compared to RSL3
COc1ccc(-c2ccc3c(-n4cc(CCOC(=O)CCl)nn4)nn(C)c3c2)cc1Cl [QW-755]	23.9 µM	9.5 µM	43.2 ± 14.9%	2.5	–
Cn1nc(C(=O)NC(C)(C)C(C)(C)OC(=O)CCl)c2ccc(-c3ccc(OC(C)(C)C)cc3)cc21 [QW-770]	2.2 µM	1 µM	−36.4 ± 19.3%	2.2	–
COc1ccc(-c2ccc3c(C(=O)NC(C)(C)C(C)(C)OC(=O)CCl)nn(Cc4ccc(Cl)cc4)c3c2)cc1Cl [QW-809]	–	–	–	–	Selectivity (HT-1080 cells; IC50 with Fer-1 / IC50): 1.5; IC50 (HT-1080 cells; [3]): 6.5 µM; IC50 (HT-1080 cells; [4]): 4.2 µM; GPX4% inhibition at 2.5 μM (GPX4; 2.5 μM, 4th generation): 34.6 ± 29.6%
COc1ccc(-c2ccc3c(C(=O)NC(C)(C)COC(=O)CCl)nn(Cc4ccc(Cl)cc4)c3c2)cc1Cl [QW-823]	–	–	–	–	ferroptosis induction / potency in HT-1080 cells, result in words (HT-1080 cells): good potency in cell and selectivity to GPX4; also recorded: outstanding cytotoxicity with sub-molar scale; Selectivity (HT-1080 cells; IC50 with Fer-1 / IC50): 34.5; IC50 (HT-1080 cells; [3]): 11.4 µM; IC50 (HT-1080 cells; [4]): 0.33 µM; GPX4 inhibitory activity, result in words (GPX4): greater GPX4 inhibitory activity than QW-446; GPX4% inhibition at 2.5 μM (GPX4; 2.5 μM, 4th generation): 95.0 ± 13.1%
CC(C)(COC(=O)CCl)NC(=O)c1nn(Cc2ccc(Cl)cc2)c2cc(-c3ccc(N4CCOCC4)c(Cl)c3)ccc12 [QW-824]	–	–	–	–	ferroptosis induction / potency in HT-1080 cells, result in words (HT-1080 cells): good potency in cell and selectivity to GPX4; also recorded: outstanding cytotoxicity with sub-molar scale; Selectivity (HT-1080 cells; IC50 with Fer-1 / IC50): >220; IC50 (HT-1080 cells; [3]): > 40 µM; IC50 (HT-1080 cells; [4]): 0.18 µM; GPX4 inhibitory activity, result in words (GPX4): greater GPX4 inhibitory activity than QW-446; GPX4% inhibition at 2.5 μM (GPX4; 2.5 μM, 4th generation): 90.5 ± 7.4%
C=CC(=O)OCC(C)(C)NC(=O)c1nn(Cc2ccc(Cl)cc2)c2cc(-c3ccc(OC)c(Cl)c3)ccc12 [QW-831]	–	–	–	–	Selectivity (HT-1080 cells; IC50 with Fer-1 / IC50): 1.1; IC50 (HT-1080 cells; [3]): 13 µM; IC50 (HT-1080 cells; [4]): 12 µM; GPX4% inhibition at 2.5 μM (GPX4; 2.5 μM, 4th generation): 32.6 ± 61.0%
COc1ccc(-c2ccc3c(C(=O)NC(C)(C)COC(=O)C#C[Si](C)(C)C)nn(Cc4ccc(Cl)cc4)c3c2)cc1Cl [QW-832]	–	–	–	–	Selectivity (HT-1080 cells; IC50 with Fer-1 / IC50): 37.4; IC50 (HT-1080 cells; [3]): 63.6 µM; IC50 (HT-1080 cells; [4]): 1.7 µM; GPX4% inhibition at 2.5 μM (GPX4; 2.5 μM, 4th generation): 58.9 ± 9.0%
CC(C)Oc1ccc(-c2ccc3c(C(=O)NC(C)(C)COC(=O)CCl)nn(Cc4ccc(Cl)cc4)c3c2)cc1Cl [QW-841]	–	–	–	–	ferroptosis induction / potency in HT-1080 cells, result in words (HT-1080 cells): outstanding cytotoxicity with sub-molar scale; Selectivity (HT-1080 cells; IC50 with Fer-1 / IC50): 38.5; IC50 (HT-1080 cells; [3]): 28.5 µM; IC50 (HT-1080 cells; [4]): 0.74 µM; GPX4% inhibition at 2.5 μM (GPX4; 2.5 μM, 4th generation): 91.3 ± 2.0%
CSc1ccc(-c2ccc3c(C(=O)NC(C)(C)COC(=O)CCl)nn(Cc4ccc(Cl)cc4)c3c2)cc1Cl [QW-847]	–	–	–	–	Selectivity (HT-1080 cells; IC50 with Fer-1 / IC50): 9.6; IC50 (HT-1080 cells; [3]): 98.4 µM; IC50 (HT-1080 cells; [4]): 10.2 µM; GPX4% inhibition at 2.5 μM (GPX4; 2.5 μM, 4th generation): 88.5 ± 16.1%
COc1ccc(-c2ccc3c(C(=O)NC(C)(C)COC(=O)CCl)nn(Cc4cc(Cl)cc(Cl)c4)c3c2)cc1Cl [QW-851]	–	–	–	–	fold change in potency in the cell viability assay, QW-851 vs QW-446 (HT-1080 cells; benzyl vs methyl on the indazole): 10 fold; Selectivity (HT-1080 cells; IC50 with Fer-1 / IC50): >920; IC50 (HT-1080 cells; read-out: IC50 against HT1080 cell lines): 0.0435 µM; IC50 (HT-1080 cells; [3]): > 40 µM; GPX4 inhibitory activity, result in words (GPX4): greater GPX4 inhibitory activity than QW-446 at 2.5 μM concentration; GPX4% inhibition at 2.5 μM (GPX4; 2.5 μM, 4th generation): 114.9 ± 23.5%

More lines, in order of falling IC50 (HT-1080 cells; [1]), values ahead:

IC50 (HT-1080 cells; [1])	IC50 (HT-1080 cells; [2])	GPX4% inhibition at 2.5 μM (GPX4; 2.5 μM)	SMILES	Selectivity (HT-1080 cells; HT1080 + Fer-1 vs HT1080)	other results
63 µM	1.6 µM	86.4 ± 7.3%	CC(C)Oc1ncc(-c2ccc3c(C(=O)NC(C)(C)COC(=O)CCl)nn(C)c3c2)cn1 [QW-716]	39.4	ferroptosis induction / potency in HT-1080 cells, result in words (HT-1080 cells): more potent compared to RSL3; GPX4 inhibitory activity, result in words (GPX4): substantially higher GPX4 inhibitory activities than QW-446
31.7 µM	1.4 µM	98.4 ± 17.6%	COc1c(Cl)cc(-c2ccc3c(C(=O)NC(C)(C)COC(=O)CCl)nn(C)c3c2)cc1Cl [QW-711]	22.6	ferroptosis induction / potency in HT-1080 cells, result in words (HT-1080 cells): less potent compared to RSL3; GPX4 inhibitory activity, result in words (GPX4): further increase the inhibitory activity
24.1 µM	2.6 µM	95.3 ± 7.6%	Cn1nc(C(=O)NC(C)(C)COC(=O)CCl)c2ccc(-c3ccc(OC(C)(C)C)cc3)cc21 [QW-715]	9.3	ferroptosis induction / potency in HT-1080 cells, result in words (HT-1080 cells): more potent compared to RSL3; GPX4 inhibition (GPX4; 2.5 μM): completely inhibited GPX4
17.3 µM	1.7 µM	–	Cn1nc(C(=O)NC(C)(C)COC(=O)CCl)c2ccc(-c3cc4ccccc4s3)cc21 [QW-470]	10.2	GPX4% inhibition at 5 μM (GPX4; 5 μM): 75.0 ± 5.6%
16.7 µM	0.58 µM	79.3 ± 5.5%	COc1c(Cl)cc(-c2ccc3c(C(=O)NC(C)(C)COC(=O)CCl)nn(C)c3c2)cc1C(F)(F)F [QW-815]	28.8	ferroptosis induction / potency in HT-1080 cells, result in words (HT-1080 cells): sub-molar range cellular activities and decreased ferroptosis selectivity
14.3 µM	8.4 µM	58.1 ± 9.2%	COc1c(F)cc(-c2ccc3c(-n4cc(C(C)(C)COC(=O)CCl)nn4)nn(C)c3c2)cc1Cl [QW-801]	1.7	–
8.8 µM	2.9 µM	22.3 ± 37.1%	Cn1nc(-n2cc(C(C)(C)COC(=O)CCl)nn2)c2ccc(-c3ccc4c(c3)OCO4)cc21 [QW-696]	3.0	–
8.8 µM	3.7 µM	−25.3 ± 6.9%	COc1ccc(-c2ccc3c(C(=O)NCC(C)(C)OC(=O)CCl)nn(C)c3c2)cc1Cl [QW-774]	2.4	–
7.3 µM	3.7 µM	95.3 ± 7.6%	COc1ccc(-c2ccc3c(C(=O)NC(C)(C)C(C)OC(=O)CCl)nn(C)c3c2)cc1Cl (racemic) [QW-736]	2.0	–
5.8 µM	2.4 µM	31.7 ± 19.5%	Cn1nc(C(=O)NC(C)(C)C(C)(C)OC(=O)CCl)c2ccc(-c3ccc(C(F)(F)F)c(Cl)c3)cc21 [QW-786]	2.6	–
5.8 µM	1.1 µM	−19.6 ± 18.2%	COc1ccc(-c2ccc3c(-n4cc(C(C)(C)CNC(=O)CCl)nn4)nn(C)c3c2)cc1Cl [QW-792]	5.3	–
3 µM	2.1 µM	−17.0 ± 28.7%	COc1c(Cl)cc(-c2ccc3c(C(=O)NC(C)(C)C(C)(C)OC(=O)CCl)nn(C)c3c2)cc1C(F)(F)F [QW-813]	1.4	–
2.8 µM	1.2 µM	68.5 ± 9.4%	Cn1nc(C(=O)NC(C)(C)C(C)(C)OC(=O)CCl)c2ccc(-c3ccc(N4CCOCC4)c(Cl)c3)cc21 [QW-731]	2.3	–
2.6 µM	2.4 µM	4.6 ± 14.4%	COc1c(F)cc(-c2ccc3c(C(=O)NC(C)(C)C(C)(C)OC(=O)CCl)nn(C)c3c2)cc1Cl [QW-796]	1.1	–
2.5 µM	1.2 µM	−31.1 ± 29.6%	COc1ccc(-c2ccc3c(C(=O)NC(C)(C)C(C)(C)OC(=O)CCl)nn(C)c3c2)cc1Br [QW-766]	2.1	–
